Assay results taken from patent US10208089B2, “Modulation of complement activity” (priority 2014, dated 2019).
Read-outs that look alike come from different tables or passages of the source. Blank lines part the entries; values can stand above or below the compound they belong to. Starred links: 1 amine or outer side, 2 acyl side, 3 side chain; linkers in the order of their positions; H or OH if unused. Positions of bridges follow the written chain, without caps; N, C: chain ends. Non-standard residues stand in square brackets, D forms with d. Residues, ends and D or L forms follow the SMILES beside them. Trp(7-aza) = N[C@@H](Cc1c[nH]c2ncccc12)C(=O)O; mXylylene = c1cc(C[*:1])cc(C[*:2])c1; pXylylene = c1cc(C[*:2])ccc1C[*:1]; Phg = N[C@H](C(=O)O)c1ccccc1; NMeS = CN[C@@H](CO)C(=O)O; Nva = CCC[C@H](N)C(=O)O

Key:
[1] = Compound stability in human plasma; assay type: in vitro ADME
Method: Compounds were assayed for stability in human plasma under the following conditions. Human plasma was obtained from Bioreclamation (Westbury, N.Y.) and collected in sodium heparin. Plasma was adjusted to pH 7.4. DMSO stocks at 10 mM concentration were prepared for the test compounds. Aliquots of the DMSO solutions were dosed into 1 mL of plasma, which had been pre-warmed to 37° C., at a final test compound concentration of 10 μM. The vials were kept in a benchtop THERMOMIXER® (Eppendorf, Hauppauge, N.Y.) for the duration of the experiment. Aliquots (100 μL) were taken at each timepoint and added to a 96-well plate that had been pre-filled with 300 μL of an acetonitrile solution containing mixture of the internal standards (metoprolol, propranolol and warfarin each at 500 ng/mL). […] Aliquots of the supernatant were removed and analyzed by LC-HRAMS.

[2] = biological target: T1, C5 (Homo sapiens, UniProt P01031); test: Competitive fluorescence polarization assay with probe R3076; assay type: binding; parameters: purchased Complement Technology, Tyler, Tex
Method: FP allows binding events to be measured in a homogenous solution.
Polarization was measured over time, until binding reached equilibrium. KD was determined using Graphpad Prism (using “Saturating Binding Curves, One Site—Specific Binding With Hill Slope” as the curve fit to determine KD).
10 μl of this working stock was then added to each well in the assay plate. The assay plate was incubated at room temperature, protected from light, for 20 minutes to allow binding to reach equilibrium.
Test articles listed in Table 7 were subsequently diluted in DMSO then assay buffer, comprising 10 2-fold dilutions and were then added to the assay plate in triplicate, rapidly. The assay plate was then incubated in the Paradigm (Molecular Devices, Sunnyvale, Calif.) plate reader for 60 minutes at 25° C.
After incubation for 60 minutes, the plate was read using the Paradigm FP protocol (Molecular Devices, Sunnyvale, Calif.) and raw polarization values were imported into Graphpad Prism.

[3] = biological target: T1, C5; test: Human hemolysis assay (RBC lysis assay using complete human sera); assay type: cell-based; parameters: with complete human sera (Complement Technology, Tyler Tex.) and polypeptides; tissue Complement Technology, Tyler Tex; host or cells: complete human serum; conditions: inhibition of lysis of antibody-sensitized sheep erythrocytes, complete human sera
[4] = biological target: T1, C5; test: Alternative human hemolysis assay using C5 depleted sera and purified human C5; assay type: cell-based; parameters: purchased Complement Technology, Tyler, Tex; conditions: antibody-sensitized sheep erythrocytes, 1.5% human C5 depleted sera and 0.5 nM purified human C5
[5] = biological target: T2, rat C5 (Rattus norvegicus, UniProt P08650); test: Ex vivo hemolysis assays in the rat study
T2 construct: from tissue; host or cells: plasma of dosed male rats

[6] = system: C5a; test: C5a EIA on supernatant from human RBC hemolysis assay; assay type: biochemical; conditions: hemolysis assay supernatant diluted 1:50; read-out: IC50, inhibition of formation of C5a
Method: Levels of C5a correlate with complement activity and are therefore an indicator of the ability of the compounds tested to inhibit complement activity. Supernatant from the hemolysis assay was diluted 1:50 and assayed for C5a levels. […] As used herein, the term “IC50” refers to the half maximal inhibitory concentration, a value used to indicate the amount of the inhibitor needed to reduce a given reaction or process by half.
Inhibition of the production of C5a and the membrane attack complex (MAC) were measured by MicroVue EIA kits (Quidel Corporation, San Diego, Calif.).

[7] = system: membrane attack complex (MAC); test: Membrane attack complex (MAC) EIA on supernatant from human RBC hemolysis assay; assay type: biochemical; conditions: hemolysis assay supernatant diluted 1:5; read-out: IC50, inhibition of formation of the MAC
Method: Supernatant from the hemolysis assay was diluted 1:5 and assayed for MAC levels.
C5 inhibitory activity was assessed by enzyme immunoassay (EIA). Inhibition of the production of C5a and the membrane attack complex (MAC) were measured by MicroVue EIA kits (Quidel Corporation, San Diego, Calif.).

[8] = biological target: T1, C5; test: Fluorescence polarization saturation binding of probe R3076 to C5; parameters: purchased Complement Technology, Tyler, Tex; conditions: read-out: equilibrium dissociation constant (KD)
Method: FP was used for screening competitive polypeptide inhibitors of the C5 protein. […] The BODIPY-TMR dye attached to the C-terminal lysine of the protein and the subsequent labeled probe was purified by HPLC.
Polarization was measured over time, until binding reached equilibrium. KD was determined using Graphpad Prism (using “Saturating Binding Curves, One Site—Specific Binding With Hill Slope” as the curve fit to determine KD). […] Based on this information, 25 nM and 50 nM concentrations for R3076 (SEQ ID NO: 40) and C5 protein, respectively, were chosen for use in the competition assay. These concentrations represented the approximate level of protein necessary for 95% probe binding to C5 protein.

T1 sequence (P01031 19-1676): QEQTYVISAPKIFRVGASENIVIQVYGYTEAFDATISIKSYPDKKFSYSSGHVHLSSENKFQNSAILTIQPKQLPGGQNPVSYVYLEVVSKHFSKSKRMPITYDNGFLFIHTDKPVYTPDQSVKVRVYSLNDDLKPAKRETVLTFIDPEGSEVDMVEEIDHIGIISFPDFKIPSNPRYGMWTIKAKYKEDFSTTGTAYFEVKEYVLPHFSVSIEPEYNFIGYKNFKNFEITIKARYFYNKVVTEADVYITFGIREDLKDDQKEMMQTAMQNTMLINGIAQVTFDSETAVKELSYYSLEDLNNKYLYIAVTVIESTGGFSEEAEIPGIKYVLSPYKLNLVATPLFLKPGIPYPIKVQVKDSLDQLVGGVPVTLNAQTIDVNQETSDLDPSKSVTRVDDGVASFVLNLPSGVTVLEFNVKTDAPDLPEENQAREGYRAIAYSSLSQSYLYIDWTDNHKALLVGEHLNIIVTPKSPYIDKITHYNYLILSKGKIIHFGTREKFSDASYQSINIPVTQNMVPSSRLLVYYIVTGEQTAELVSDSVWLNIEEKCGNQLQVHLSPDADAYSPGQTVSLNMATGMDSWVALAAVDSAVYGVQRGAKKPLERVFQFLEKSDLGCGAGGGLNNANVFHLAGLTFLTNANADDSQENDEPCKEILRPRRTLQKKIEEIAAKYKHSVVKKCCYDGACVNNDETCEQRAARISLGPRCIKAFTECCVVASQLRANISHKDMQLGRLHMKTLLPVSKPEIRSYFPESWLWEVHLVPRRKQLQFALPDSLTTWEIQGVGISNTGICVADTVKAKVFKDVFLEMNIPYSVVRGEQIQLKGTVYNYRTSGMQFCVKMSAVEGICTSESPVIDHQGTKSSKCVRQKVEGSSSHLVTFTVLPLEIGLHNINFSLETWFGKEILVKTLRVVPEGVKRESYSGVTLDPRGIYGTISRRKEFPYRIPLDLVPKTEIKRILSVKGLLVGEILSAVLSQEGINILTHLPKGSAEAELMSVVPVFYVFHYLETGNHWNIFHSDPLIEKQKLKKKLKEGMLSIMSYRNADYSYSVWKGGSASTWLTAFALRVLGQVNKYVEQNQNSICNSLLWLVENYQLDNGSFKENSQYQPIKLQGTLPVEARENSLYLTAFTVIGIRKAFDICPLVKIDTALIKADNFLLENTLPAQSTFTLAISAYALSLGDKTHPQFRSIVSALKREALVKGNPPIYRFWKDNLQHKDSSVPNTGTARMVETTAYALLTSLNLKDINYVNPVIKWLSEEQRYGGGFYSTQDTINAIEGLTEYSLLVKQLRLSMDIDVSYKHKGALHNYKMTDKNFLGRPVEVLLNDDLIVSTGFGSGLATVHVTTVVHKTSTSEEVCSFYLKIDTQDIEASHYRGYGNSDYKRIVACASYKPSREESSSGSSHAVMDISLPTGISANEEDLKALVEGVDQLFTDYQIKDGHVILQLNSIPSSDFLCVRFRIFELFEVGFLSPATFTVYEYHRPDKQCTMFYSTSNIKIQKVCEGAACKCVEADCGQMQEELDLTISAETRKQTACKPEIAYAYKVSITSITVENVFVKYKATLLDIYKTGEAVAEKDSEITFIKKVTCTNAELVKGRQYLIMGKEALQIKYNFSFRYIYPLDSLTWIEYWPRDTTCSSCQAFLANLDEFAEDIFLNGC
T2 sequence (P08650 19-1681): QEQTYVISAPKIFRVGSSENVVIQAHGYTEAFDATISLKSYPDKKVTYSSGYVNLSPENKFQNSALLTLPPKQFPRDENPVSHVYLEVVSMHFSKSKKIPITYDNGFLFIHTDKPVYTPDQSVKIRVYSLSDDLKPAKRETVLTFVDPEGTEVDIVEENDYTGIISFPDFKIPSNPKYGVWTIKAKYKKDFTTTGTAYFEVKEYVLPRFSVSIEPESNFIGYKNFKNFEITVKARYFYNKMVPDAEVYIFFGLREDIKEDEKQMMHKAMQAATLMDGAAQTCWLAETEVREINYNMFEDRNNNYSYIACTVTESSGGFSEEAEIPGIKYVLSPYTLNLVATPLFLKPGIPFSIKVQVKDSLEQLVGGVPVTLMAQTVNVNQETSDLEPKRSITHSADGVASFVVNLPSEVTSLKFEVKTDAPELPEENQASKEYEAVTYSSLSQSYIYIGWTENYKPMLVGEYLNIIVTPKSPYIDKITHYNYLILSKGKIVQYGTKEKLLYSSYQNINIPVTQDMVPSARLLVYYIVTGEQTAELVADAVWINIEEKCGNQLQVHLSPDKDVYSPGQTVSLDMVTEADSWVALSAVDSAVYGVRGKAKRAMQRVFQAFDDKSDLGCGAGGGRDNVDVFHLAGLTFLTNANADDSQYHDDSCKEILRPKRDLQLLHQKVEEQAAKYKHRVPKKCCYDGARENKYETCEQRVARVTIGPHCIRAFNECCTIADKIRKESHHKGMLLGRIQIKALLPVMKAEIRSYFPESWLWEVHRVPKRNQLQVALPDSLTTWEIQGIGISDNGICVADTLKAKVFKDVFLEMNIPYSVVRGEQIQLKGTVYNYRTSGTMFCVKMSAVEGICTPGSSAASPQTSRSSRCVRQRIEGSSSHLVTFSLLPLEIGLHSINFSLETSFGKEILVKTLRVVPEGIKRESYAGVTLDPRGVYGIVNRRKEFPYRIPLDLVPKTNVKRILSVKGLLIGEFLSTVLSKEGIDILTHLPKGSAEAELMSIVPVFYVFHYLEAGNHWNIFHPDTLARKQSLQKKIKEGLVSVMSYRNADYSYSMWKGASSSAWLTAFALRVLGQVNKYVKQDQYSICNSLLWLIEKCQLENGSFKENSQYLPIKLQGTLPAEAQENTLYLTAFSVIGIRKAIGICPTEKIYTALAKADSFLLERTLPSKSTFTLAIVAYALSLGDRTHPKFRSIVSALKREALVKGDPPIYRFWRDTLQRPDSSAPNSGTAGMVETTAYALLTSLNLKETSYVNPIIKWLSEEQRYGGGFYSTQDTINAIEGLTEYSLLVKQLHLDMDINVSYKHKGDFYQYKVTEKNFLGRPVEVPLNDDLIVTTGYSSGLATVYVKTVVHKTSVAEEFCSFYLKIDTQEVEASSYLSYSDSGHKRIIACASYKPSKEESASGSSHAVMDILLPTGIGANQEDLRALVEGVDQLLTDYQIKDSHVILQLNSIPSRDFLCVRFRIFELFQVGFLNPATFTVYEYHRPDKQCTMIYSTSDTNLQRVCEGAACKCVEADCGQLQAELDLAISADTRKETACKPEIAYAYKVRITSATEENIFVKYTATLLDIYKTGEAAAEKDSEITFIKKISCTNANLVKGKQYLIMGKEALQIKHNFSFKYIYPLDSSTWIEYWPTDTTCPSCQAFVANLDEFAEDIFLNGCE

stability in human plasma (in words) ([1]; 37° C., up to 24 hrs): highly stable
half-life at 10 μM ([1]; pH 7.4, 37° C., 10 μM): > 24 h
Percent remaining at time (hrs): 0 hrs ([1]; pH 7.4, 37° C., 10 μM, 0 hrs): 100%
remaining at 2 h, 10 μM ([1]; plasma (collected in sodium heparin), pH 7.4, 37° C., 10 μM, 2 hrs, read-out: Percent remaining at time (hrs): 2 hrs): 109%
remaining at 4 h, 10 μM ([1]; plasma (collected in sodium heparin), pH 7.4, 37° C., 10 μM, 4 hrs, read-out: Percent remaining at time (hrs): 4 hrs): 100%
remaining at 12 h, 10 μM ([1]; plasma (collected in sodium heparin), pH 7.4, 37° C., 10 μM, 12 hrs, read-out: Percent remaining at time (hrs): 12 hrs): 88%
remaining at 24 h, 10 μM ([1]; plasma (collected in sodium heparin), pH 7.4, 37° C., 10 μM, 24 hrs, read-out: Percent remaining at time (hrs): 24 hrs): 98.1%
IC50 ([2]; average of Exp 1 and Exp 2, read-out: Avg, nM IC50): 280 nM
Ki ([2]; average of Exp 1 and Exp 2, read-out: Avg, nM Ki): 64.3 nM
IC50 ([2]; competition with probe R3076 25 nM, C5 50 nM, 60 min at 25° C., experiment 1, read-out: IC50 nM, Exp 1): 267 nM
Ki ([2]; competition with probe R3076 25 nM, C5 50 nM, 60 min at 25° C., experiment 1, read-out: Ki nM, Exp 1): 71.1 nM
IC50 ([2]; competition with probe R3076 25 nM, C5 50 nM, 60 min at 25° C., experiment 2, read-out: IC50 nM, Exp 2): 293 nM
Ki ([2]; competition with probe R3076 25 nM, C5 50 nM, 60 min at 25° C., experiment 2, read-out: Ki nM, Exp 2): 57.6 nM
competition with labeled probe / affinity for C5 (in words) ([2]; probe R3076 25 nM, C5 50 nM): relatively strong affinity
Compound: CCC[C@H](NC(=O)[C@@H]1CSCc2ccc(cc2)CSC[C@H](NC(=O)[C@H](CCC)NC(C)=O)C(=O)N[C@@H](c2ccccc2)C(=O)N[C@@H]([C@@H](C)O)C(=O)N[C@@H](Cc2c[nH]c3ncccc23)C(=O)N[C@@H](CCC(=O)O)C(=O)N[C@@H](Cc2ccc(O)cc2)C(=O)N(C)[C@@H](CO)C(=O)N[C@@H](Cc2c[nH]cn2)C(=O)N1)C(N)=O [Compound R3050, [pXylyl(2,10)]Ac-Nvl-C-Phg-T-azaTrp-E-Y-(N-Me)S-H-C-Nvl-NH2] (Ac-[Nva]C[Phg]T[Trp(7-aza)]EY[NMeS]HC[Nva]-NH2; linker 2-10 via pXylylene)
IC50 [3]: 42.9 nM

Compound: CC(=O)N[C@H]1CCCCNC(=O)C[C@@H](C(=O)N(C)[C@@H](CC(=O)O)C(=O)N[C@H](C(=O)N[C@@H](Cc2ccc(O)cc2)C(=O)N[C@@H](Cc2c[nH]c3ncccc23)C(=O)N[C@@H](CCC(=O)O)C(=O)N[C@@H](Cc2ccc(O)cc2)C(=O)N2CCC[C@H]2C(=O)N[C@H](C(=O)N[C@@H](CCCCN)C(N)=O)C2CCCCC2)C(C)(C)C)NC(=O)[C@H](Cc2ccccc2)NC(=O)[C@H](CCCNC(=N)N)NC(=O)[C@H](CCC(=O)O)NC(=O)[C@H](C(C)C)NC1=O [Compound R3192, [cyclo(1,6)]Ac-K-V-E-R-F-D-(N-Me)D-Tbg-Y-azaTrp-E-Y-P-Chg-K-NH2]
IC50 [4]: 1.5 nM

Compound: CCCCCCCCCCCCCCCC(=O)NCCCC[C@H](NC(=O)[C@@H](NC(=O)[C@@H]1CCCN1C(=O)[C@H](Cc1ccc(O)cc1)NC(=O)[C@H](CCC(=O)O)NC(=O)[C@H](Cc1c[nH]c2ncccc12)NC(=O)[C@H](Cc1ccc(O)cc1)NC(=O)[C@@H](NC(=O)[C@H](CC(=O)O)N(C)C(=O)[C@@H]1CSSCCC(=O)N[C@@H](C(C)C)C(=O)N[C@@H](CCC(=O)O)C(=O)N[C@@H](CCCNC(=N)N)C(=O)N[C@@H](Cc2ccccc2)C(=O)N1)C(C)(C)C)C1CCCCC1)C(=O)O [Compound R3198, [cyclo(1,6)](desamino)C-V-E-R-F-C-(N-Me)D-Tbg-Y-azaTrp-E-Y-P-Chg-(Lys-C16)]
IC50 [4]: 142 nM

Compound: CCCCCCCCCCCCCCCC(=O)NCCCC[C@H](NC(=O)[C@@H](NC(=O)[C@@H]1CCCN1C(=O)[C@H](Cc1ccc(O)cc1)NC(=O)[C@H](CCC(=O)O)NC(=O)[C@H](Cc1c[nH]c2ncccc12)NC(=O)[C@H](Cc1ccc(O)cc1)NC(=O)[C@@H](NC(=O)[C@H](CC(=O)O)N(C)C(=O)[C@@H]1CC(=O)NCCCC[C@H](NC(C)=O)C(=O)N[C@@H](C(C)C)C(=O)N[C@@H](CCC(=O)O)C(=O)N[C@@H](CCCNC(=N)N)C(=O)N[C@@H](Cc2ccccc2)C(=O)N1)C(C)(C)C)C1CCCCC1)C(N)=O [Compound R3194, [cyclo(1,6)]Ac-K-V-E-R-F-D-(N-Me)D-Tbg-Y-azaTrp-E-Y-P-Chg-(Lys-C16)-NH2]
IC50 [4]: 15.5 nM

Compound: CCC[C@H](NC(=O)[C@@H](NC(=O)[C@@H]1CCCN1C(=O)[C@H](Cc1ccc(O)cc1)NC(=O)[C@H](CCC(=O)O)NC(=O)[C@H](Cc1c[nH]c2ncccc12)NC(=O)[C@H](Cc1ccc(O)cc1)NC(=O)[C@@H](NC(=O)[C@H](CC(=O)O)NC(=O)[C@@H]1CSCc2cccc(c2)CSC[C@H](NC(C)=O)C(=O)N[C@@H](C(C)C)C(=O)N[C@@H](CCC(=O)O)C(=O)N[C@@H](CCCNC(=N)N)C(=O)N[C@@H](Cc2ccccc2)C(=O)N1)C(C)(C)C)C1CCCCC1)C(=O)O [Compound R3201, [mXylyl(1,6)]Ac-C-V-E-R-F-C-D-Tbg-Y-azaTrp-E-Y-P-Chg-Nvl]
inhibitory activity in ex vivo hemolysis assays (in words) [5]: very little inhibitory activity
binding to rat C5 (in words) ([5]; in vivo): do not bind

Compound: CCC[C@H](NC(=O)[C@@H]1CCCN1C(=O)[C@H](CCC)NC(=O)[C@@H]1CSCc2cccc(c2)CSC[C@H](NC(=O)[C@H](CCC)NC(C)=O)C(=O)N[C@@H](c2ccccc2)C(=O)N[C@@H]([C@@H](C)O)C(=O)N[C@@H](Cc2c[nH]c3ncccc23)C(=O)N[C@@H](CCC(=O)O)C(=O)N[C@@H](Cc2ccc(O)cc2)C(=O)N(C)[C@@H](CO)C(=O)N[C@@H](Cc2c[nH]cn2)C(=O)N1)C(N)=O [Compound R3008, [mXylyl(2,10)]Ac-Nvl-C-Phg-T-azaTrp-E-Y-(N-Me)S-H-C-Nvl-P-Nvl-NH2] (Ac-[Nva]C[Phg]T[Trp(7-aza)]EY[NMeS]HC[Nva]P[Nva]-NH2; linker 2-10 via mXylylene)
IC50 [6]: 54.5 nM
IC50 [7]: 33 nM
IC50 [3]: 97 nM

Compound: CCC[C@H](NC(C)=O)C(=O)N[C@@H](CCC)C(=O)N[C@@H](Cc1ccc(O)cc1)C(=O)N[C@@H](CCC(=O)O)C(=O)N[C@@H](CC(N)=O)C(=O)N[C@H](C(=O)N[C@@H](Cc1ccc(O)cc1)C(=O)N[C@@H](Cc1c[nH]c2ncccc12)C(=O)N[C@@H](CCC(=O)O)C(=O)N[C@@H](Cc1ccc(O)cc1)C(=O)N1CCC[C@H]1C(=O)N[C@H](C(=O)N[C@@H](CCC)C(=O)N[C@@H](CCCCNC(=O)CCCCCNC(=O)CCC1=C(C)C2=Cc3ccc(-c4ccc(OC)cc4)n3[B-](F)(F)[N+]2=C1C)C(N)=O)C1CCCCC1)C(C)(C)C [Compound R3076, Ac-Nvl-Nvl-Y-E-N-Tbg-Y-azaTrp-E-Y-P-Chg-Nvl-K-(BODIPY-TMR-X) NH2]
Kd [8]: 8.07 nM
IC50 [3]: 297 nM
